Tested on: harmaline induced tremor
Assay: Inhibition of harmaline induced tremor by T-type channel blockers, measured with tremor quantification apparatus
Format: in vivo, mouse
Text: In the screening method of the present invention, symptoms of essential tremor of step 3) are involuntary, regular movements of hands, arms, head, face, vocal band, trunk or legs. The symptoms can be checked by movement artifact of electroenphalograph (EEG) or tremor quantification apparatus, but not always limited thereto. The tremor quantification apparatus herein is to detect tremor of the mouse, in which stainless test cage is hung on the support and the bottom of the cage is attached with accelerometer connected with electric wire to analog-digital converter so that the generated analog signals can be converted into digital signals recognizable by computer. Thereby, tremor of the mouse can be measured by analyzing the digital signals recognized by computer. […] When the strength of oscillation for 5 seconds under the frequency of 10-18 Hz, that is the characteristic frequency of harmaline induced tremor, was at least 65 dB, it was diagnosed as tremor and the time point of break (onset), duration, strength, and the maximum frequency were all measured and compared between the wild type mice and the transgenic mice. The method for measuring tremor is developed on the basis of described method in the following references (Long M A. et al., J. Neurosci. 2002 Dec. 15, 22(24):10898-905; Milner, T E. et al., J. Neurophysiol. 1995 June, 73(6):2568-77).
The α1G−/−transgenic mice generated in Example 1 and the wild-type mice were administered with the tremor inducing agents, oxotremorine (0.3 mg/kg), penitrem A (1.0 mg/kg) and harmaline (9 mg/kg) respectively by intraperitoneal injection to induce tremor. Tremor was investigated by using movement artifact of electroenphalograph (EEG) and tremor quantification apparatus designed by the present inventors. […] The accelerometer was connected to analog-digital converter (Digidata1320, Axon instrument Inc) by electric wire so that the generated analog signals could be converted into digital signals recognizable by computer. Thereby, tremor of the mouse was measured by analyzing the digital signals recognized by computer. The accelerometer was quipped to the test cage where the animals were located, and the test cage was hung in the air. The level of tremor of the animal was quantified by measuring the oscillation of the test cage. […] When the strength of oscillation for 5 seconds under the frequency of 10-18 Hz, that is the characteristic frequency of harmaline induced tremor, was at least 65 dB, it was diagnosed as tremor and the time point of development of tremor (onset), duration, strength, and the maximum frequency were all measured and compared between the wild type mice and the knockout mice.
The wild-type mouse (α1G+/+) was administered with 10 mg/kg of mibefradil by intraperitoneal injection 30 minutes before harmaline injection to investigate the therapeutic effect of mibefradil on harmaline induced tremor. In the meantime, osmotic pump (Model 1002, 0.25 ul/hour, Alzet) containing 20 mM of mibefradil was inserted into the brain of the wild-type mouse (α1G+/+). Two days later, the therapeutic effect on harmaline induced tremor was investigated by using the tremor quantification apparatus of Example 2.
The wild-type mice (α1G+/+) were administered with 150 mg/kg and 300 mg/kg of ethosuximide by intraperitoneal injection 30 minutes before harmaline injection to investigate the therapeutic effect of ethosuximide on harmaline induced tremor. For the investigation, the tremor quantification apparatus of Example 2 was used.

[1] = wild-type mice (α1G+/+), 300 mg/kg intraperitoneal injection 30 minutes before harmaline injection

SMILES | tremor inhibiting effect on harmaline induced tremor (wild-type mice (α1G+/+), 150 mg/kg intraperitoneal injection 30 minutes before harmaline injection) | mice that did not exhibit oscillation, symptom of tremor [1] [%] | mice that showed tremor [1] [%] | tremor inhibiting effect on harmaline induced tremor [1] | tremor inhibiting effect on harmaline induced tremor (wild-type mouse (α1G+/+), 10 mg/kg intraperitoneal injection 30 minutes before harmaline injection) | tremor inhibiting effect on harmaline induced tremor (wild-type mouse (α1G+/+), osmotic pump containing 20 mM, 0.25 ul/hour, directly into inferior olive (IO) of the brain, two days later)
CCC1(C)CC(=O)NC1=O (stereo not drawn) [ethosuximide] | tremor inhibiting effect was observed | 60 | 40 | tremor inhibiting effect was observed |  | 
COCC(=O)O[C@]1(CCN(C)CCCc2nc3ccccc3[nH]2)CCc2cc(F)ccc2[C@@H]1C(C)C [mibefradil] |  |  |  |  | tremor inhibiting effect was not detected | tremor inhibiting effect was observed
